For one data set, the target named is T1, UGT1A6 (Homo sapiens, UniProt P19224).
T1 sequence (P19224 27-532): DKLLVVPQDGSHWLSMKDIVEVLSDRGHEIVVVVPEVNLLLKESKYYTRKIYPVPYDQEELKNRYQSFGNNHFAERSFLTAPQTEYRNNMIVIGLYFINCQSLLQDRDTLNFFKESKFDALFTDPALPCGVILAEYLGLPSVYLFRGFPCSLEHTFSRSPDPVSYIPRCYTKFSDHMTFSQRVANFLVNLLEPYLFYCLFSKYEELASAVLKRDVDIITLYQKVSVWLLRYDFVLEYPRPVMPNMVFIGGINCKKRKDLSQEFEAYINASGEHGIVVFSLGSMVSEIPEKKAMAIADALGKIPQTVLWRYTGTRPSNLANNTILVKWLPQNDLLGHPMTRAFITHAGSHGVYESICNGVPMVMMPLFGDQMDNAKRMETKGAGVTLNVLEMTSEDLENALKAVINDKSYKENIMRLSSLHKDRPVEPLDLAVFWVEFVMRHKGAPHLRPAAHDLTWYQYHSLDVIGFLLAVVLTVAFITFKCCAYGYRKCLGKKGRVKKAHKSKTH
Briefly: M1 formation from molidustat by recombinant UGT1A6. It counts as in vitro ADME. Conditions: 1 and 10 µmol L^−1.

Data set [1] concerns UGT-mediated glucuronidation of molidustat. Briefly: Enzyme kinetics of molidustat glucuronidation in pooled human liver microsomes. The data set is classed as in vitro ADME. The note with it: human, pooled human liver microsomes, pH 7.4. On the technique in general: Liver microsomes are a subcellular fraction often used to study metabolism.
For data set [2], the system named is pooled human liver microsomes. Described as above. It counts as in vitro ADME. The note with it: human liver microsomes, Hill equation.
Data set [3] can be described thus: Clinical DDI study: safety and tolerability. The data set is classed as in vivo, human. The note with it: n = 14.
In a further data set the target is T2, UGT2B17 (Homo sapiens, UniProt O75795).
T2 sequence (O75795 24-530): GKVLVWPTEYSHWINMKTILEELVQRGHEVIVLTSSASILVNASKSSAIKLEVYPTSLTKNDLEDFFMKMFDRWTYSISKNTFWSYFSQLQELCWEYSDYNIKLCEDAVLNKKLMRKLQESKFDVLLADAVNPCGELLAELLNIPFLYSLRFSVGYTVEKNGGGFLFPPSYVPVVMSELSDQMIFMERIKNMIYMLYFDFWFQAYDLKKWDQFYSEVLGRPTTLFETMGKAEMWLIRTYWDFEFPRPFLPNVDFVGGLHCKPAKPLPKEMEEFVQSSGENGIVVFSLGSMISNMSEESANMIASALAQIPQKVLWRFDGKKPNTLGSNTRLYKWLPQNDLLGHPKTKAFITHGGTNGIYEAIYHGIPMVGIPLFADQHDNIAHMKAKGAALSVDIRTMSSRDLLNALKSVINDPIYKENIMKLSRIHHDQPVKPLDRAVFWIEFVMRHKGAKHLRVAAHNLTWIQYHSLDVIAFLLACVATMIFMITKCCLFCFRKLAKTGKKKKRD
The data set can be described thus: M1 formation from molidustat by recombinant UGT2B17. It counts as in vitro ADME. The note with it: 1 and 10 µmol L^−1.

For data set [4] the following is noted: human, cited from earlier work; for absolute oral bioavailability: oral (IR tablet).
In the next data set the test system is EPO. Briefly: Clinical DDI study: pharmacodynamics, serum erythropoietin. It counts as in vivo, human. Conditions: N 13.

Where two headings read alike, the source gives them in different places.

With `O=c1c(-n2ccnn2)c[nH]n1-c1cc(N2CCOCC2)ncn1` [Molidustat], at UGT1A6, the “activity for glucuronidation of molidustat” value was “lacked measurable activity”. Besides, in data set [1], the Km (as a rule, the substrate concentration at which the rate is half of its maximum) was found to be 90 µM. Moreover, the “estimated S50” value in data set [2] was 90 µmol/L. Besides, in data set [3], the “Abdominal pain (participants with TEAE)” value was 0 n (%), the “Headache (participants with TEAE)” value is given as 0 n (%) and the “Participants with ≥ 1 TEAE” value is reported as 0 n (%). Also, the “Jaundice (participants with TEAE)” value in data set [3] (considered related to atazanavir) is recorded as 0 n (%). Moreover, the “activity for glucuronidation of molidustat” value at UGT2B17 is given as “lacked measurable activity”. Further, in data set [4], the absolute oral bioavailability entry is given as “about 60%”, the “fraction of the dose excreted as molidustat via faeces” value is ~ 6% and the “fraction of the dose excreted as molidustat via urine” value is listed as ~ 4%. The absolute oral bioavailability in data set [4] (listed as molidustat) is reported as 59%. For the same molecule, in the data set on EPO, the “EPO AUC(0‐24), absolute EPO concentration, arithmetic mean ± SD” value is 385 ± 121 IU L^−1*h; the “EPO AUC(0‐24), absolute EPO concentration, geometric mean/CV%” value turned out to be 365 IU L^−1*h; the “EPO C max, difference to baseline, arithmetic mean ± SD” value is 12.8 ± 4.02 IU L^−1; the “EPO C max, ratio to baseline, arithmetic mean ± SD” value amounted to 2.62 ± 0.578. In addition, in the data set on EPO, the “EPO C max, ratio to baseline, geometric mean/CV%” value was determined as 2.56.

These data come from PMC7983974 (Basic & Clinical Pharmacology & Toxicology, 2020).
